How the values were obtained:
IL-12 p70 [1] = test: Inhibition of production of IL-12 p70 protein; type: cell-based, human; settings: Homo sapiens; 1 μM Compound 1; 10 mM ASA; read-out: percent inhibition of production of IL-12 p70 protein
Experimental: Cells were co-transfected with the vector pCMV (BD Biosciences Clontech) in which the constitutively active CMV promoter directs β-galactosidase expression for the monitoring of transfection efficiency. Luciferase and β-galactosidase activity were determined in cell extracts prepared according to the Luciferase assay system (Promega) and Luminescent n-gal Detection system (BD Biosciences Clontech). Luciferase activity was then normalized using the β-galactosidase value. […] ELISA was performed by the following method. Human IL-12 p70 (heterodimer) was assayed using ELI-PAIR kit from Cell Sciences (Norwood, Mass.), according to the manufacturer's instructions. Human IL-12 p40 was assayed using ELISA kit from Cell Sciences (Norwood, Mass.) according to the manufacturer's instructions.
The extracts obtained from this process were used in gel-shift assays using oligonucleotides containing the NFκB target sequence corresponding to the region −121 to −102 from the transcription initiation site of IL-12 p40 or a mutated NFκB binding site. […] This interaction was specific as it was competed away by an excess of unlabeled probe, but not by a mutated oligonucleotide in which two base-pairs were substituted. […] This is expected since a compound that potently blocks NFkB have a far broader cytokine inhibitory profile than Compound 1/Compound 2.

p50 = test: ELISA based transcriptional factor-DNA binding activity assay, THP-1 nuclear extracts, p50; type: cell-based, human; settings: IFN-γ/LPS, 500 nm, 3 hrs
Experimental: Nuclear extracts were prepared from IFN-γ-primed THP-1 cells that had been treated with or without SAC and incubated in the presence or absence of 1 μM Compound 1 or 10 mM ASA. Isolation of nuclear extracts was accomplished by first suspending THP-1 cells in 20 volumes of buffer A containing 10 mM KCl, 10 mM HEPES (pH 7.9), 1 mM MgCl2, 1 mM dithiothreitol (DTT), 0.1% Nonidet p40 (NP-40), and 0.5 mM phenylmethylsulfonyl fluoride (PMSF) and then homogenizing and centrifuging at 10,000 rpm at 4° C. for 5 min. Nuclear pellets were then suspended in buffer C containing 400 mM NaCl, 20 mM HEPES pH 7.9), 15 mM MgCl2, 0.2 mM EDTA, 1 mM DTT, 25% glycerol, 1 mM PMSF, and 10 μg of leupeptin, 20 μg of pepstatin, and 10 μg of antipain per ml, incubated for 30 min at 4° C., and centrifuge at 14,000 rpm for […]. The supernatants were dialyzed against buffer D containing 100 mM NaCl, 20 mM HEPES (pH 7.9), 20% glycerol, 1 mM PMSF, and 1 mM DTT.
To understand the action of Compound 2 in NF-κB binding, several NF-κB family members, p50, c-Rel and p65 were investigated using an ELISA based transcriptional factor-DNA binding activity assay system. […]

Rel-B = test: Immunoblot of nuclear Rel-B in THP1 cells; type: cell-based, human; settings: THP1, IFNg+LPS, 100 nM, 6 h
Experimental: Rel B and p52 are two members of Rel family, which are preferentially complexed with each other. Like p50 and p65, p52 is found in virtually all cell types, whereas c-Rel and Rel B have only been detected in lymphoid tissues. To determine the effect of Compound 2 on p52 and Rel-B nuclear translocation, THP1 cells were stimulated with IFNg+LPS in either the presence or absence of 100 nM Compound 2, and the distribution of p52 and Rel-B was determined by immunoblotting of nuclear at 6 h post-treatment.
THP-1 cells were suspended in 20 volumes of buffer A containing 10 mM KCl, 10 mM HEPES (pH 7.9), 1 mM MgCl2, 1 mM dithiothreitol (DTT), 0.1% Nonidet p40 (NP-40), and 0.5 mM phenylmethylsulfonyl fluoride (PMSF) and homogenized and centrifuged at 10,000 rpm at 4 C for 5 min. Nuclear pellets were then suspended in buffer C containing 400 mM NaCl, 20 mM HEPES 9 pH 7.9), 15 mM MgCl2, 0.2 mM EDTA, 1 mM DTT, 25% glycerol, 1 mM PMSF, and 10 ug of leupeptin, 20 ug of pepstatin, and 10 ug/ml antipain, incubated for 30 min at 4 C, and centrifuged at 14,000 rpm for 20 min. The supernatants were dialyzed against buffer D containing 100 mM NaCl, 20 mM HEPES (pH 7.9), 20% glycerol, 1 mM PMSF, and 1 mM DTT.
The 10% SDS Polyacrylamide gels (Invitrogen) were transferred to Pure Nitrocellulose membrane (BioRed, Hercules, Calif.). […]

IL-12 p70 [2] = test: IL-12 p70 production in human monocyte-derived dendritic cells; type: cell-based; settings: IFN-γ primed then SAC or LPS
Experimental: Although c-Rel has a role in the expression of both p35 and p40 in monocytes and macrophages as well as p35 in dendritic cells (DCs), p40 expression in dendritic cells is c-Rel-independent (Grumont et al. J. Exp. Med. 2001; 194:1021-1031). If Compound 2 is acting through c-Rel, this drug should inhibit both p40 and p70 production by PBMCs. However, Compound 2 should inhibit the production of p70 (through inhibition of p35) in DCs, but should not inhibit p40 in DCs. This was tested by generating monocyte-derived dendritic cells according to the following method. Human PBMC at 1×10^7 cells/ml were suspended in serum-free DMEM and incubated for 2 hrs at 37° C. under 5% CO2. The non-adherent cells then were removed by washing with PBS. The adherent cells were cultured in RPMI-1640 medium containing rhIL-4 (100 U/ml) and rhGM-CSF (1000 U/ml) for 6-7 days. The half volume fresh media and full-volume fresh cytokines were added every other day. The cells were then primed with IFN-γ (100 U/ml) and followed by 0.01% SAC or 1 μg/ml LPS, in the presence of different concentrations of Compound 2 or other compounds. The test compounds were prepared in DMSO and the final DMSO concentration was adjusted to 0.25% in all cultures, including the compound-free control. Cell-free supernatants were taken 18 h later for the measurement of cytokines.

| SMILES | inhibition at 1 µM (IL-12 p70 [1]) | binding activity of p50 (p50) | nuclear Rel-B (FIG. 11) (Rel-B) | p70 production in human DCs (IL-12 p70 [2]) |
| --- | --- | --- | --- | --- |
| C(=NNc1nc(OCCc2ccccn2)nc(N2CCOCC2)n1)c1c[nH]c2ccccc12 [Compound 1, N-(1H-indol-3-ylmethylene)-N′-[4-morpholin-4-yl-6-(2-pyridin-2-yl-ethoxy)-[1,3,5]triazin-2-yl]-hydrazine] | 97% |  |  |  |
| Cc1cccc(C=NNc2cc(N3CCOCC3)nc(OCCc3ccccn3)n2)c1 [Compound 2, N-(3-methyl-benzylidene)-N′-[6-morpholin-4-yl-2-(2-pyridin-2-yl-ethoxy)-pyrimidin-4-yl]-hydrazine] |  | slightly decreased | slightly increased | inhibit |

Reference: patent US9910031B2, “Compositions and methods for modulating c-Rel-dependent cytokine production” (Synta Pharmaceuticals Corporation, priority 2003, dated 2018)
